Key:
EGFR mutant T790M = target: T1, EGFR mutant T790M (Homo sapiens, UniProt P00533, T790M); experiment: Kinase inhibition assay, EGFR mutant T790M; settings: biochemical potency;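 note: truncated human EGFR mutant enzyme preincubated two hours with compound, then ATP plus ULight-PolyGT peptide for one hour, Europium-labeled antibody LANCE detection, IC50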
T1 construct: truncated human JAK3, EGFR mutants such as del E746-A750; purchased Carna Biosciences

[1] = target: T2, EGFR mutant Del19 (E746-A750) (Homo sapiens, UniProt P00533, DEL746-750); experiment: Kinase inhibition assay, EGFR del E746-A750; type: biochemical; settings: read-out: EGFR mutants Del19 (E746-A750);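 note: truncated human EGFR mutant kinase, two-hour preincubation with compound, then one-hour reaction with ATP and ULight-PolyGT peptide, LANCE Europium-antibody phosphorylation readout, IC50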
T2 construct: truncated human JAK3, EGFR mutants such as del E746-A750; purchased Carna Biosciences
T2 sequence (P00533 with tags, fused parts or gaps DEL746-750 limits assumed): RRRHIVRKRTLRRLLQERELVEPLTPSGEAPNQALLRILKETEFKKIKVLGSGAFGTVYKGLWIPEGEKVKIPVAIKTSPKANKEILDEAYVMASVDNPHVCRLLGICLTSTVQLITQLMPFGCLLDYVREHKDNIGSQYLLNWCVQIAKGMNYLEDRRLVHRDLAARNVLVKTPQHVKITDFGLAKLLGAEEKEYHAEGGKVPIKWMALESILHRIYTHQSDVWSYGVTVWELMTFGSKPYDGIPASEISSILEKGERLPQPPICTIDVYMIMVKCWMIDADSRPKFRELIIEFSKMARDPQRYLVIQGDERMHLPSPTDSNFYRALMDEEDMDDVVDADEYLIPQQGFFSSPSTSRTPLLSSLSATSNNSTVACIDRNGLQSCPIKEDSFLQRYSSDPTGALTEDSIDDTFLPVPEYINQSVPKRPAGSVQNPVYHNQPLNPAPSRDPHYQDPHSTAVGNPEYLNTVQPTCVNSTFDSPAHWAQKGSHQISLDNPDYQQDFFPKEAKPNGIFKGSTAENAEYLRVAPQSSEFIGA

EGFR mutant L858R = target: T3, EGFR mutant L858R (Homo sapiens, UniProt P00533, L858R); experiment: Kinase inhibition assay, EGFR L858R; type: biochemical; settings: read-out: EGFR mutants L858R;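 note: truncated human EGFR L858R kinase with compound preincubation, ULight-PolyGT peptide phosphorylation read by Europium-antibody Lance detection, IC50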
T3 construct: truncated human JAK3, EGFR mutants such as del E746-A750; purchased Carna Biosciences
T3 sequence (P00533 669-1210 L858R limits assumed): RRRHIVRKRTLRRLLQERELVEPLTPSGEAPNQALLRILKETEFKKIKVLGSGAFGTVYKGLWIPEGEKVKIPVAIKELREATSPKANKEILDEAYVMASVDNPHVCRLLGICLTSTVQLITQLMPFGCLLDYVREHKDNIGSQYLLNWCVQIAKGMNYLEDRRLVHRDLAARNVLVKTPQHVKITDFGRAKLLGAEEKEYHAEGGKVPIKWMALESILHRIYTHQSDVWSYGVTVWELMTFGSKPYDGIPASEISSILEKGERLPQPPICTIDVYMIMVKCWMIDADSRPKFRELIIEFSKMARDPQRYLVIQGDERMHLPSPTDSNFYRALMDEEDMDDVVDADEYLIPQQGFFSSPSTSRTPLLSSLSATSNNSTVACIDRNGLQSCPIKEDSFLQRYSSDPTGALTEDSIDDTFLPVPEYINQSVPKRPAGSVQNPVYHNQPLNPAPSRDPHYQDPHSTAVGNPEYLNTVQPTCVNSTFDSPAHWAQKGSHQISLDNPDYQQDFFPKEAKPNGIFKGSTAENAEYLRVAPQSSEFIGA

EGFR mutant L858R/T790M = target: T4, EGFR mutant L858R/T790M (Homo sapiens, UniProt P00533, L858R/T790M); experiment: Kinase inhibition assay, EGFR L858R/T790M; type: biochemical; settings: read-out: EGFR mutants L858R/T790M;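 note: truncated human enzyme preincubated two hours with compound, then one hour with one millimolar ATP and ULight-PolyGT peptide, Europium-labeled antibody detection, IC50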
T4 construct: truncated human JAK3, EGFR mutants such as del E746-A750; purchased Carna Biosciences
T4 sequence (P00533 669-1210 T790M/L858R limits assumed): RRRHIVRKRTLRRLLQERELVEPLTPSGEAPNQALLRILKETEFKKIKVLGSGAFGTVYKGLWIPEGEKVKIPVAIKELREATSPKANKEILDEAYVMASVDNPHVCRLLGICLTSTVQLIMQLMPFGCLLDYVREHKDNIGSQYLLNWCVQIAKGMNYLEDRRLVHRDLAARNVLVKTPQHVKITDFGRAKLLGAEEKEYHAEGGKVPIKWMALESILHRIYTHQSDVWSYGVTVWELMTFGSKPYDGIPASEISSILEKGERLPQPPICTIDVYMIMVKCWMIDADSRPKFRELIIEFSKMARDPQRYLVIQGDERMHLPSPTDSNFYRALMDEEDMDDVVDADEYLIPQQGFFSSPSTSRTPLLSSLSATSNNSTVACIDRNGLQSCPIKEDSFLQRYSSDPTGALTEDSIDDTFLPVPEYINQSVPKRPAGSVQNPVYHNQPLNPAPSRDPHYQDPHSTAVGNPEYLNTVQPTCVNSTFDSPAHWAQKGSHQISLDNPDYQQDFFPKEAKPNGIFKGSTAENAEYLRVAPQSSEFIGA

EGFR mutant Del19/T790M = target: T5, EGFR mutant Del19/T790M (Homo sapiens, UniProt P00533, DEL746-750/T790M); experiment: Kinase inhibition assay, EGFR del E746-A750/T790M; type: biochemical; settings: read-out: EGFR mutants Del19/T790M
T5 construct: truncated human JAK3, EGFR mutants such as del E746-A750; purchased Carna Biosciences
T5 sequence (P00533 with tags, fused parts or gaps DEL746-750/T790M limits assumed): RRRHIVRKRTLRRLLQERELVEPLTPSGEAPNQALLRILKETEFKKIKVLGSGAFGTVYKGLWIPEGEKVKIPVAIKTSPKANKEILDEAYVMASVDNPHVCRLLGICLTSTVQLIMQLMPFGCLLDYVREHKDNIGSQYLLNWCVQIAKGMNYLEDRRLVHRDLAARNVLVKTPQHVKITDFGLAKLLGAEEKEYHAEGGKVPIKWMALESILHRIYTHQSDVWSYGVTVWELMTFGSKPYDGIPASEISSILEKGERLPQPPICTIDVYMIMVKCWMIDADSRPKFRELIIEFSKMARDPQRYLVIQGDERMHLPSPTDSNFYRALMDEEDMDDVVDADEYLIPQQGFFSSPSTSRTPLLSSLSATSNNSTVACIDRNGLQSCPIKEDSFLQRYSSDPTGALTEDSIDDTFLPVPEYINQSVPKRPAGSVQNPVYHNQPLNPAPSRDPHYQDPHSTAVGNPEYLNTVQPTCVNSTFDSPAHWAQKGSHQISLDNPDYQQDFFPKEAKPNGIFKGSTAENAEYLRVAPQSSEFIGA

SYK = target: T6, SYK (Homo sapiens, UniProt P43405); experiment: Kinase inhibition assay, SYK; type: biochemical; settings: biochemical potency;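 note: purified full-length human SYK pre-incubated 30 min with compound, then ULight-TK peptide phosphorylation for 1 h, detected with Europium-labeled antibody in Lance buffer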
T6 construct: Purified human, full-length SYK, KDR; purchased Carna Biosciences

H2073 (EGFR wildtype) = experiment: Cell viability assay, H2073; type: cell-based; settings: NCI-H2073; cellular potency; 72-hour incubation; ATPLite;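 note: NSCLC cell line whose survival relies on wildtype EGFR, treated with serially diluted compound, cytotoxic effect judged from remaining cell viability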
[2] = tested on: PC9 (EGFR del E746-A750 mutant); experiment: Cell viability assay, PC9; type: cell-based; settings: for Selectivity over wildtype, Wildtype vs mutant H2073/PC9 (fold): cellular potency ratio; for IC50: cellular potency, 72-hour incubation, ATPLite, read-out: EGFR Mutants PC9;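 for all read-outs here: NSCLC PC9 cells, whose viability relies on EGFR del E746-A750, exposed to serially diluted compound for 72 h at 37 °C, ATPLite read-out, IC50, H2073 as EGFR wildtype line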
[3] = tested on: H1975 (EGFR L858R/T790M mutant); experiment: Cell viability assay, H1975; type: cell-based; settings: for IC50: Homo sapiens, NCI-H1975, cellular potency, 72-hour incubation, ATPLite, read-out: EGFR Mutants H1975; for Selectivity over wildtype, Wildtype vs mutant H2073/H1975 (fold): cellular potency ratio;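 for all read-outs here: NSCLC cells whose survival relies on EGFR L858R/T790M, exposed 72 h to serially diluted compound, ATP-based viability readout, with the H2073 line (wildtype EGFR dependent) as wildtype comparator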

T1 sequence (P00533 669-1210 T790M limits assumed): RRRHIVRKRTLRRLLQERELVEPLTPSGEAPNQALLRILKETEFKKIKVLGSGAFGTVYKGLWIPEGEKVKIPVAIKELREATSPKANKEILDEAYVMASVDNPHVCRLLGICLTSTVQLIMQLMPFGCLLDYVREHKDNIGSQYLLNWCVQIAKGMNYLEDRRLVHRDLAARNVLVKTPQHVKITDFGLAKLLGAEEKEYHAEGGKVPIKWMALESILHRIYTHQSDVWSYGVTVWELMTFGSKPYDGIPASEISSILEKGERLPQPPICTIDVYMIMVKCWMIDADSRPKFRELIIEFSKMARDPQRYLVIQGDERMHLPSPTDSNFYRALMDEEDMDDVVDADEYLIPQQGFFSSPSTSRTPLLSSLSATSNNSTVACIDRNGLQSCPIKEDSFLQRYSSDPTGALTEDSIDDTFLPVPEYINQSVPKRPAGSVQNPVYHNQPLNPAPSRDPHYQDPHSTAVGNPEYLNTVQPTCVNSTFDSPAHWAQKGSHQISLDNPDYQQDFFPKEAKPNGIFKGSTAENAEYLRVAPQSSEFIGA

Compound | IC50 (EGFR mutant T790M) | IC50 [1] | IC50 (EGFR mutant L858R) | IC50 (EGFR mutant L858R/T790M) | IC50 (EGFR mutant Del19/T790M) | IC50 (SYK) | IC50 (H2073 (EGFR wildtype)) | IC50 [2] | IC50 [3] | Selectivity over wildtype, Wildtype vs mutant H2073/PC9 (fold) [2] | Selectivity over wildtype, Wildtype vs mutant H2073/H1975 (fold) [3]
C=CC(=O)Nc1cc(Nc2nccc(-n3cc(CN(C)C)c(C(C)C)n3)n2)c(OC)cc1N(C)C1COC1 [Compound 114, N-(5-(4-(4-((dimethylamino)methyl)-3-isopropyl-1H-pyrazol-1-yl)pyrimidin-2-ylamino)-4-methoxy-2-(methyl(oxetan-3-yl)amino)phenyl)acrylamide] | < 20 nM | < 20 nM | < 20 nM | < 20 nM | < 20 nM | 201 to 1000 nM |  |  |  |  | 
C=CC(=O)Nc1cc(Nc2ncc(C)c(-n3cc(CN(C)C)c(-c4ccccc4)n3)n2)c(OC)cc1N1CCOCC1 [Compound 120, N-(5-(4-(4-((dimethylamino)methyl)-3-phenyl-1H-pyrazol-1-yl)-5-methylpyrimidin-2-ylamino)-4-methoxy-2-morpholinophenyl)acrylamide] | < 20 nM | < 20 nM | < 20 nM | < 20 nM | < 20 nM | 20 to 200 nM |  |  |  |  | 
C=CC(=O)Nc1cc(Nc2nccc(-n3cc(CN(C)C)c(-c4ccoc4)n3)n2)c(OC)cc1N1CCOCC1 [Compound 127, N-(5-(4-(4-((dimethylamino)methyl)-3-(furan-3-yl)-1H-pyrazol-1-yl)pyrimidin-2-ylamino)-4-methoxy-2-morpholinophenyl)acrylamide] | < 20 nM | < 20 nM | < 20 nM | < 20 nM | < 20 nM | 201 to 1000 nM |  |  |  |  | 
C=CC(=O)Nc1cc(Nc2ncc(F)c(-n3cc(CN4CCC4)c(-c4ccoc4)c3)n2)c(OC)cc1N1CCOCC1 [Compound 130, N-(5-(4-(3-(azetidin-1-ylmethyl)-4-(furan-3-yl)-1H-pyrrol-1-yl)-5-fluoropyrimidin-2-ylamino)-4-methoxy-2-morpholinophenyl)acrylamide] | < 20 nM | < 20 nM | < 20 nM | < 20 nM | < 20 nM | 201 to 1000 nM |  |  |  |  | 
C=CC(=O)Nc1cc(Nc2ncc(F)c(-n3cc(CN(C)C)c(-c4ccoc4)c3)n2)c(OC)cc1N1CCOCC1 [Compound 131, N-(5-(4-(3-((dimethylamino)methyl)-4-(furan-3-yl)-1H-pyrrol-1-yl)-5-fluoropyrimidin-2-ylamino)-4-methoxy-2-morpholinophenyl)acrylamide] | < 20 nM | < 20 nM | < 20 nM | < 20 nM | < 20 nM | 201 to 1000 nM |  |  |  |  | 
C=CC(=O)Nc1cc(Nc2nccc(-n3cc(CN(C)C)c(-c4ccccc4)n3)n2)c(OC)cc1N1CCN(C(C)=O)CC1 [Compound 135, N-(2-(4-acetylpiperazin-1-yl)-5-(4-(4-((dimethylamino)methyl)-3-phenyl-1H-pyrazol-1-yl)pyrimidin-2-ylamino)-4-methoxyphenyl)acrylamide] | < 20 nM | < 20 nM | < 20 nM | < 20 nM | < 20 nM | > 1000 nM |  |  |  |  | 
C=CC(=O)Nc1cc(Nc2nccc(-n3cc(CN4CCC4)c(C4CC4)n3)n2)c(OC)cc1N1CCN(C(C)=O)CC1 [Compound 138, N-(2-(4-acetylpiperazin-1-yl)-5-(4-(4-(azetidin-1-ylmethyl)-3-cyclopropyl-1H-pyrazol-1-yl)pyrimidin-2-ylamino)-4-methoxyphenyl)acrylamide] | < 20 nM | < 20 nM | < 20 nM | < 20 nM | < 20 nM | > 1000 nM |  |  |  |  | 
C=CC(=O)Nc1cc(Nc2nccc(-n3cc(CN4CCC4)c(C4CC4)n3)n2)c(OC)cc1N1CCC1 [Compound 139, N-(2-(azetidin-1-yl)-5-(4-(4-(azetidin-1-ylmethyl)-3-cyclopropyl-1H-pyrazol-1-yl)pyrimidin-2-ylamino)-4-methoxyphenyl)acrylamide] | < 20 nM | < 20 nM | < 20 nM | < 20 nM | < 20 nM | > 1000 nM |  |  |  |  | 
C=CC(=O)Nc1cc(Nc2nccc(-n3cc(CN(C)CC)c(C4CC4)n3)n2)c(OC)cc1N1CCOCC1 [Compound 140, N-(5-(4-(3-cyclopropyl-4-((ethyl(methyl)amino)methyl)-1H-pyrazol-1-yl)pyrimidin-2-ylamino)-4-methoxy-2-morpholinophenyl)acrylamide] | < 20 nM | < 20 nM | < 20 nM | < 20 nM | < 20 nM | > 1000 nM |  |  |  |  | 
Cc1cn(-c2ccnc(Nc3ccc(-c4ccccc4)c(C)c3)n2)cc1CN1CC(O)C1 [Compound 150, 1-((4-methyl-1-(2-(2-methylbiphenyl-4-ylamino)pyrimidin-4-yl)-1H-pyrrol-3-yl)methyl)azetidin-3-ol, reference compound] | > 1000 nM | > 1000 nM | > 1000 nM | 201 to 1000 nM | > 1000 nM | > 1000 nM |  |  |  |  | 
C=CCC(=O)Nc1cc(Nc2nccc(-n3cc(CN(C)C)c(-c4ccccc4)n3)n2)c(OC)cc1N1CCOCC1 [Compound 154, N-(5-(4-(4-((dimethylamino)methyl)-3-phenyl-1H-pyrazol-1-yl)pyrimidin-2-ylamino)-4-methoxy-2-morpholinophenyl)but-3-enamide, reference compound] |  |  |  |  |  |  | > 1000 nM | 20 to 200 nM | 201 to 1000 nM | <20 fold | <20 fold

The next lines start with results.

IC50 (EGFR mutant T790M) | IC50 [1] | IC50 (EGFR mutant L858R) | IC50 (EGFR mutant L858R/T790M) | IC50 (EGFR mutant Del19/T790M) | IC50 (SYK) | IC50 (H2073 (EGFR wildtype)) | IC50 [2] | IC50 [3] | Compound | Selectivity over wildtype, Wildtype vs mutant H2073/PC9 (fold) [2] | Selectivity over wildtype, Wildtype vs mutant H2073/H1975 (fold) [3]
< 20 nM | < 20 nM | < 20 nM | < 20 nM | < 20 nM | > 1000 nM |  |  |  | C=CC(=O)Nc1cc(Nc2nccc(-n3cc(CN4CCC4)c(C(C)C)n3)n2)c(OC)cc1N(C)C1COC1 [Compound 115] |  | 
< 20 nM | < 20 nM | < 20 nM | < 20 nM | < 20 nM | 201 to 1000 nM |  |  |  | C=CC(=O)Nc1cc(Nc2nccc(-n3cc(CN4CCC4)c(C(C)C)n3)n2)c(OC)cc1N1CCOCC1 [Compound 119, N-(5-(4-(4-(azetidin-1-ylmethyl)-3-isopropyl-1H-pyrazol-1-yl)pyrimidin-2-ylamino)-4-methoxy-2-morpholinophenyl)acrylamide] |  | 
< 20 nM | < 20 nM | < 20 nM | < 20 nM | < 20 nM | 201 to 1000 nM |  |  |  | C=CC(=O)Nc1cc(Nc2nccc(-n3cc(CN(C)C)c(C4CC4)n3)n2)c(OC)cc1N1CCN(C(C)=O)CC1 [Compound 129, N-(2-(4-acetylpiperazin-1-yl)-5-(4-(3-cyclopropyl-4-((dimethylamino)methyl)-1H-pyrazol-1-yl)pyrimidin-2-ylamino)-4-methoxyphenyl)acrylamide] |  | 
< 20 nM | < 20 nM | < 20 nM | < 20 nM | < 20 nM | 201 to 1000 nM |  |  |  | C=CC(=O)Nc1cc(Nc2nccc(-n3cc(CN4CCC4)c(-c4ccccc4)n3)n2)c(OC)cc1N1CCN(C(C)=O)CC1 [Compound 134, N-(2-(4-acetylpiperazin-1-yl)-5-(4-(4-(azetidin-1-ylmethyl)-3-phenyl-1H-pyrazol-1-yl)pyrimidin-2-ylamino)-4-methoxyphenyl)acrylamide] |  | 
< 20 nM | < 20 nM | < 20 nM | < 20 nM | < 20 nM | 201 to 1000 nM |  |  |  | C=CC(=O)Nc1cc(Nc2ncc(F)c(-n3cc(C)c(CN4CCC4)c3)n2)c(OC)cc1N1CCC1 [Compound 141, N-(2-(azetidin-1-yl)-5-(4-(3-(azetidin-1-ylmethyl)-4-methyl-1H-pyrrol-1-yl)-5-fluoropyrimidin-2-ylamino)-4-methoxyphenyl)acrylamide] |  | 
> 1000 nM | > 1000 nM | > 1000 nM | > 1000 nM | > 1000 nM | > 1000 nM |  |  |  | COc1cc(N2CCOCC2)c([N+](=O)[O-])cc1Nc1nccc(-n2cc(CN(C)C)c(-c3ccccc3)n2)n1 [Compound 152, 4-(4-((dimethylamino)methyl)-3-phenyl-1H-pyrazol-1-yl)-N-(2-methoxy-4-morpholino-5-nitrophenyl)pyrimidin-2-amine, reference compound] |  | 
> 1000 nM | > 1000 nM | > 1000 nM | > 1000 nM | > 1000 nM | > 1000 nM |  |  |  | COc1cc(N2CCOCC2)c(N)cc1Nc1nccc(-n2cc(CN(C)C)c(-c3ccccc3)n2)n1 [Compound 153, N1-(4-(4-((dimethylamino)methyl)-3-phenyl-1H-pyrazol-1-yl)pyrimidin-2-yl)-6-methoxy-4-morpholinobenzene-1,3-diamine, reference compound] |  | 
 |  |  |  |  |  | > 1000 nM | 201 to 1000 nM | 201 to 1000 nM | CC/C=C/C(=O)Nc1cc(Nc2nccc(-n3cc(CN(C)C)c(-c4ccccc4)n3)n2)c(OC)cc1N1CCOCC1 [Compound 155, (E)-N-(5-(4-(4-((dimethylamino)methyl)-3-phenyl-1H-pyrazol-1-yl)pyrimidin-2-ylamino)-4-methoxy-2-morpholinophenyl)pent-2-enamide, reference compound] | <20 fold | <20 fold

— patent USRE50528E1, “Compounds and compositions for modulating EGFR mutant kinase activities” (Yuhan Corporation, priority 2014, dated 2025)
